Data from article PMC3155816 (Journal of medicinal chemistry, 2011).
Values after ≈ are worked out from the molar mass of the structure shown. Values joined by “and” are separate entries in the source; they are usually repeats but may differ in a detail not shown here. Equal entries are not always repeated.

Experiments:
[1] = Solubility in PBS by chemiluminescence of total nitrogen; assay type: physicochemical
[2] = test system: Vaccinia virus (WR strain); assay: microbe, parasite or virus in culture; assay type: cell-based; conditions: Orthopoxvirus vaccinia, BSC-1, read-out: Plaque Reduction EC50
[3] = molecular target: vaccinia virus D4 (Vaccinia virus, UniProt P04303); assay type: binding
[4] = Cytotoxicity by LDH release; assay type: cell-based; conditions: African green monkey, BSC-1 cells
[5] = molecular target: vaccinia E9 DNA polymerase with A20 and D4 (processivity complex) (Vaccinia virus, UniProt P04303); assay: biochemical

Oc1ccc(NCc2ccccc2OCc2ccccc2)cc1 [Compound 10, 4-({[2-(benzyloxy)phenyl]methyl}amino)phenol]
solubility [1]: 3.5 µM (≈ 1.07 µg/mL)
EC50 [2]: 9.8 µM

O=C1c2ccccc2-c2onc3c(NCCO)cc(NC4CCCCC4)c1c23 [Compound 9, 10-(cyclohexylamino)-12-[(2-hydroxyethyl)amino]-15-oxa-14-azatetracyclohexadeca-1(16),2,4,6,9,11,13-heptaen-8-one]
Tm [3]: 51.4 ± 9.1 °C
ΔTm [3]: 13.1 °C
solubility [1]: 1.4 µg/mL and 3.6 µM
CC50 at 20 h [4]: 127 µM
EC50 [2]: 8.1 µM
IC50 [5]: 34.1 µM

Cc1ccc2oc(-c3ccc(Cl)cc3)c(O)c(=O)c2c1 [Compound 5]
EC50 [2]: ≥ 200 µM

COc1cc(-c2nc(-c3ccccc3)c(-c3ccc(Br)cc3)[nH]2)cc(OC)c1O [Compound 27, 4-[5-(4-bromophenyl)-4-phenyl-1H-imidazol-2-yl]-2,6-dimethoxyphenol]
solubility [1]: 3.2 µM (≈ 1.44 µg/mL)
EC50 [2]: 22.4 µM

COc1ccc(C)cc1N(CC(=O)N1CCC(C)CC1)S(=O)(=O)c1ccc(C)cc1 [Compound 26]
EC50 [2]: ≥ 200 µM

COc1ccc(Nc2nc(Nc3ccc(OC)cc3OC)nc(N3CCOCC3)n2)c(OC)c1 [Compound 12]
EC50 [2]: ≥ 200 µM

Cc1cc2n(n1)C(c1cc(C(C)(C)C)c(O)cc1O)Nc1ccccc1-2 (stereo not shown) [Compound 15, 4-tert-butyl-6-{2-methyl-5H,6H-pyrazolo[1,5-c]quinazolin-5-yl}benzene-1,3-diol]
solubility [1]: 54.7 µM (≈ 19.1 µg/mL)
EC50 [2]: 23.3 µM

Cn1c(=O)n(C)c2cc(NS(=O)(=O)c3ccc(C(C)(C)C)cc3)c(NCc3ccccc3)cc21 [Compound 14, N-[6-(benzylamino)-1,3-dimethyl-2-oxo-2,3-dihydro-1H-1,3-benzodiazol-5-yl]-4-tert-butylbenzene-1-sulfonamide]
solubility [1]: 1.9 µM (≈ 0.909 µg/mL)
